Measurements taken from patent US20220395467A1, “THERAPEUTIC PROTEIN-BASED NANOPARTICLES AND METHODS FOR MAKING THE SAME” (THE REGENTS OF THE UNIVERSITY OF MICHIGAN, priority 2019, published 2022).

Tested on: B16F10-OVA melanoma
Test: Therapeutic efficacy in murine model of B16F10-OVA melanoma
Assay type: in vivo, C57BL/6 mice
Description: FIGS. 9A-9B. FIGS. 9A-9B show therapeutic effect of OVA pNPs. In FIG. 9A, a vaccine doses and regimen for a murine model is shown. […] C57BL/6 mice are inoculated subcutaneously with 1×10^5 B 16F10-OVA cells on day 0. On days 7 and 14, mice are treated with indicated formulations (OVA pNP, soluble OVA, PBS) containing 10 μg/dose OVA and 15 μg/dose CpG (100 μL dose). Data represent mean±SEM (n=10). Groups are compared using Kaplan-Meier estimator analysis. P<0.05 is considered statistically different (*P<0.05). P>0.05 is considered not significant.
Therapeutic efficacy of pNPs in a model of melanoma. Encouraged by the fact that OVA pNPs with 10% PEG/OVA ratio result in increased OT-I CD8+ cell proliferation in vitro, improved uptake by APCs (both in vitro and in vivo), and enhanced humoral immune response in vivo, a murine model of B16F10-OVA melanoma was employed to evaluate the therapeutic efficacy of pNPs with a PEG/OVA ratio of 10% compared to solute OVA. […] Following the regimen shown in FIG. 9A, C57BL/6 mice (10 mice/treatment group) were inoculated with 1×10^5 B16F10-OVA cells in the SC flank on day 0. […] A second treatment was given on day 14. Mice were euthanized after their tumors reached 15 mm in any dimension. […] More than 50% of mice treated with solute OVA were euthanized due to large tumor burden on day 20, and 100% of the mice were euthanized on day 21.

[1] = treated days 7 and 14, 10 μg OVA + 15 μg CpG, n=10

Ovalbumin [soluble OVA, soluble ovalbumin antigen used as control]
animal survival (solute OVA vs no treatment control, pNPs until endpoint day 24): slightly better survival
mice euthanized due to large tumor burden on day 20 [1]: More than 50%
mice euthanized on day 21 [1]: 100%
